Experiments:
[1] = biological target: T1, HCV polymerase (NS5B) type 1b (Hepatitis C virus genotype 1b, UniProt P26663); assay: Assay of enzyme (HCV polymerase) inhibitory activity, type 1b enzyme; format: biochemical, HCV BK strain (type 1b); details: HCV polymerase inhibitory activity (IC50), 1b, type 1b enzyme 0.5 μg/ml, 25° C., 60 min
T1 construct: a region encoding NS5B (J Virol 1991 March, 65(3), 1105-13, 544 amino acids after deletion of 47 amino acids on the C-terminal); 6xHis (C); made in house; host or cells: Escherichia coli
Summary of the method: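 His-tagged, C-terminally truncated NS5B (BK strain, 1b; 0.5 μg/ml) incubated with compound 60 min at 25 °C on 3′UTR-derived substrate RNA (5 μg/ml), 50 μM ATP/GTP/CTP, 2 μM UTP plus [3H]UTP, pH 7.5. Acid-precipitated RNA counted; IC50 from radioactivity with and without compound.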

[2] = biological target: T2, HCV polymerase (NS5B) type 1a (Hepatitis C virus genotype 1a, UniProt P26664); assay: Assay of enzyme (HCV polymerase) inhibitory activity, type 1a enzyme; format: biochemical, HCV type 1a (cloned from the blood of patients); details: HCV polymerase inhibitory activity (IC50), 1a, type 1a enzyme 1.5 μg/ml, 25° C., 60 min
T2 construct: made in house; host or cells: Escherichia coli (by the 'similar method' of the 1b enzyme)
Summary of the method: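 His-tagged NS5B, C-terminal 47 residues deleted, type 1a at 1.5 μg/ml, with 5 μg/ml HCV 3′UTR substrate RNA, 50 μM ATP/GTP/CTP, 2 μM UTP plus [3H]UTP, pH 7.5 Tris, 5 mM MgCl2; 60 min at 25° C. TCA-precipitated RNA counted by scintillation; IC50 from radioactivity with vs. without compound.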

In the case of `CCC(F)(F)c1ccc(CNC(=O)[C@H]2CN(c3cnc(-c4nnn[nH]4)cn3)CCN2S(=O)(=O)c2ccc(OC(F)(F)F)cc2)cc1` [Example 592, (R)-5′-(1H-tetrazol-5-yl)-4-(4-trifluoromethoxy-benzenesulfonyl)-3,4,5,6-tetrahydro-2H-[1,2′]bipyrazinyl-3-carboxylic acid 4-(1,1-difluoro-propyl)-benzylamide], the IC50 [1] is reported as under 100 nM and the IC50 [2] is reported as under 100 nM.
`CC(C)(C)c1ccc(CNC(=O)[C@H]2CN(c3cnc(CN4CCOCC4)cn3)CCN2S(=O)(=O)c2ccc(OC(F)(F)F)cc2)cc1` [Example 593, (R)-5′-morpholin-4-ylmethyl-4-(4-trifluoromethoxy-benzenesulfonyl)-3,4,5,6-tetrahydro-2H-[1,2′]bipyrazinyl-3-carboxylic acid 4-tert-butyl-benzylamide] was tested, and the IC50 [1] was under 100 nM and the IC50 [2] was under 100 nM.
`CN1CCN(Cc2cnc(N3CCN(S(=O)(=O)c4ccc(OC(F)(F)F)cc4)[C@@H](C(=O)NCc4ccc(C(C)(C)C)cc4)C3)cn2)CC1` [Example 594, (R)-5′-(4-methyl-piperazin-1-ylmethyl)-4-(4-trifluoromethoxy-benzenesulfonyl)-3,4,5,6-tetrahydro-2H-[1,2′]bipyrazinyl-3-carboxylic acid 4-tert-butyl-benzylamide] showed an IC50 [1] of under 100 nM and an IC50 [2] of under 100 nM.
Work on `CCC(F)(F)c1ccc(CNC(=O)[C@H]2CN(c3cnc(CN(C)C)cn3)CCN2S(=O)(=O)c2ccc(OC(F)(F)F)cc2)cc1` [Example 595, (R)-5′-dimethylaminomethyl-4-(4-trifluoromethoxy-benzenesulfonyl)-3,4,5,6-tetrahydro-2H-[1,2′]bipyrazinyl-3-carboxylic acid 4-(1,1-difluoro-propyl)-benzylamide] yielded an IC50 [1] of under 100 nM and an IC50 [2] of under 100 nM.
With `CCC(F)(F)c1ccc(CNC(=O)[C@H]2CN(c3nc(NC(C)=O)ns3)CCN2S(=O)(=O)c2ccc(OC(F)(F)F)cc2)cc1` [Example 596, (R)-4-(3-acetylamino-[1,2,4]thiadiazol-5-yl)-1-(4-trifluoromethoxy-benzenesulfonyl)-piperazine-2-carboxylic acid 4-(1,1-difluoro-propyl)-benzylamide] the IC50 [1] was under 100 nM and the IC50 [2] was under 100 nM.
In the case of `CC(C)(C)c1ccc(CNC(=O)[C@H]2CN(c3nc4cc[nH]c(=O)c4s3)CCN2S(=O)(=O)c2ccc(OC(F)(F)F)cc2)cc1` [Example 597, (R)-4-(4-oxo-4,5-dihydro-thiazolo[5,4-c]pyridin-2-yl)-1-(4-trifluoromethoxy-benzenesulfonyl)-piperazine-2-carboxylic acid 4-tert-butyl-benzylamide], the IC50 [1] is reported as under 100 nM and the IC50 [2] is reported as under 100 nM.
With `CC(=O)N1CCN(S(=O)(=O)c2ccc(OC(F)(F)F)cc2)[C@@H](C(=O)NCc2ccc(-c3ccccn3)s2)C1` [Example 598, (R)-4-acetyl-1-(4-trifluoromethoxy-benzenesulfonyl)-piperazine-2-carboxylic acid (5-pyridin-2-yl-thiophen-2-ylmethyl)-amide] the IC50 [1] was 100 to 1000 nM and the IC50 [2] was 100 to 1000 nM.
Compound `CC(=O)N1CCN(S(=O)(=O)c2ccc(OC(F)(F)F)cc2)[C@@H](C(=O)NCc2csc(-c3cccs3)n2)C1` [Example 599, (R)-4-acetyl-1-(4-trifluoromethoxy-benzenesulfonyl)-piperazine-2-carboxylic acid (2-thiophen-2-yl-thiazol-4-ylmethyl)-amide] has an IC50 [1] of over 1000 nM and an IC50 [2] of 100 to 1000 nM.
`CC(C)(C)c1ccc(CNC(=O)[C@H]2CN(c3nc4c(s3)CN(S(C)(=O)=O)CC4)CCN2S(=O)(=O)c2ccc(OC(F)(F)F)cc2)cc1` [Example 600, (R)-4-(5-methanesulfonyl-4,5,6,7-tetrahydro-thiazolo[5,4-c]pyridin-2-yl)-1-(4-trifluoromethoxy-benzenesulfonyl)-piperazine-2-carboxylic acid 4-tert-butyl-benzylamide] was tested, and the IC50 [1] was under 100 nM and the IC50 [2] was under 100 nM.
Compound `CCNC(=O)N1CCc2nc(N3CCN(S(=O)(=O)c4ccc(OC(F)(F)F)cc4)[C@@H](C(=O)NCc4ccc(C(C)(C)C)cc4)C3)sc2C1` [Example 601, 2-[(R)-3-(4-tert-butyl-benzylcarbamoyl)-4-(4-trifluoromethoxy-benzenesulfonyl)-piperazin-1-yl]-6,7-dihydro-4H-thiazolo[5,4-c]pyridine-5-carboxylic acid ethylamide] has an IC50 [1] of under 100 nM and an IC50 [2] of under 100 nM.
In the case of `CC(C)(C)c1ccc(CNC(=O)[C@H]2CN(c3nc4nc[nH]c(=O)c4s3)CCN2S(=O)(=O)c2ccc(OC(F)(F)F)cc2)cc1` [Example 602, (R)-4-(7-oxo-6,7-dihydro-thiazolo[4,5-d]pyrimidin-2-yl)-1-(4-trifluoromethoxy-benzenesulfonyl)-piperazine-2-carboxylic acid 4-tert-butyl-benzylamide], the IC50 [1] is reported as under 100 nM and the IC50 [2] is reported as under 100 nM.
In the case of `CC(C)(C)c1ccc(CNC(=O)[C@H]2CN(c3nc(CO)c(C(=O)O)s3)CCN2S(=O)(=O)c2ccc(OC(F)(F)F)cc2)cc1` [Example 603, 2-[(R)-3-(4-tert-butyl-benzylcarbamoyl)-4-(4-trifluoromethoxy-benzenesulfonyl)-piperazin-1-yl]-4-hydroxymethyl-thiazole-5-carboxylic acid], the IC50 [1] is reported as 100 to 1000 nM and the IC50 [2] is reported as 100 to 1000 nM.
`CCC(F)(F)c1ccc(CNC(=O)[C@H]2CN(c3cnc(CO)c(N)n3)CCN2S(=O)(=O)c2ccc(OC(F)(F)F)cc2)cc1` [Example 604, (R)-6′-amino-5′-hydroxymethyl-4-(4-trifluoromethoxy-benzenesulfonyl)-3,4,5,6-tetrahydro-2H-[1,2′]bipyrazinyl-3-carboxylic acid 4-(1,1-difluoro-propyl)-benzylamide] gave an IC50 [1] of under 100 nM and an IC50 [2] of 100 to 1000 nM.
In the case of `CCC(F)(F)c1ccc(CNC(=O)[C@H]2CN(c3cc(N)ncn3)CCN2S(=O)(=O)c2ccc(OC(F)(F)F)cc2)cc1` [Example 605, (R)-4-(6-amino-pyrimidin-4-yl)-1-(4-trifluoromethoxy-benzenesulfonyl)-piperazine-2-carboxylic acid 4-(1,1-difluoro-propyl)-benzylamide], the IC50 [1] is reported as under 100 nM and the IC50 [2] is reported as under 100 nM.
Work on `COc1nsc(N2CCN(S(=O)(=O)c3ccc(OC(F)(F)F)cc3)[C@@H](C(=O)NCc3ccc(C(C)(C)C)cc3)C2)n1` [Example 606, (R)-4-(3-methoxy-[1,2,4]thiadiazol-5-yl)-1-(4-trifluoromethoxy-benzenesulfonyl)-piperazine-2-carboxylic acid 4-tert-butyl-benzylamide] yielded an IC50 [1] of under 100 nM and an IC50 [2] of under 100 nM.
`CCC(F)(F)c1ccc(CNC(=O)[C@H]2CN(C(=O)Nc3cncs3)CCN2S(=O)(=O)c2ccc(OC(F)(F)F)cc2)cc1` [Example 607, (R)-4-(4-trifluoromethoxy-benzenesulfonyl)-piperazine-1,3-dicarboxylic acid 3-[4-(1,1-difluoro-propyl)-benzylamide] 1-thiazol-5-ylamide] showed an IC50 [1] of 100 to 1000 nM and an IC50 [2] of 100 to 1000 nM.
For `COc1ccc(CNC(=O)[C@H]2CN(C(C)=O)CCN2S(=O)(=O)c2ccc(OC(F)(F)F)cc2)cc1` [Example 608, (R)-4-acetyl-1-(4-trifluoromethoxy-benzenesulfonyl)-piperazine-2-carboxylic acid 4-methoxy-benzylamide], the IC50 [1] was 100 to 1000 nM and the IC50 [2] was 100 to 1000 nM.
With `CCC(F)(F)c1ccc(CNC(=O)[C@H]2CN(C(=O)C(C)C)CCN2S(=O)(=O)c2ccc(OC(F)(F)F)cc2)cc1` [Example 609, (R)-4-isobutyryl-1-(4-trifluoromethoxy-benzenesulfonyl)-piperazine-2-carboxylic acid 4-(1,1-difluoro-propyl)-benzylamide] the IC50 [1] was 100 to 1000 nM and the IC50 [2] was over 1000 nM.

From patent US8017612B2, “Piperazine compound and use thereof as a HCV polymerase inhibitor” (priority 2006, dated 2011)
